Read-outs that look alike come from different tables or passages of the source. Blank lines part the entries; values can stand above or below the compound they belong to.
Target: T1, BRM (Homo sapiens, UniProt P51531)
T1 construct: In-Cell Western Screen of BRM Degradation in SW1573 Cells; endogenous in cells; host or cells: SW1573
Test: In-cell Western screen of BRM degradation in SW1573 cells (Dmax and DC50)
Type: cell-based
Summary of the method: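 Near-infrared imaging on a LI-COR Odyssey (800 and 680 nm channels) quantifies BRM remaining in fixed SW1573 cells. Cells are dosed for 18-20 h at 0.1% final DMSO, and degradation is expressed as Dmax and DC50.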

[1] = degradation of BRM, read-out: BRM DC50

T1 sequence (P51531 whole entry): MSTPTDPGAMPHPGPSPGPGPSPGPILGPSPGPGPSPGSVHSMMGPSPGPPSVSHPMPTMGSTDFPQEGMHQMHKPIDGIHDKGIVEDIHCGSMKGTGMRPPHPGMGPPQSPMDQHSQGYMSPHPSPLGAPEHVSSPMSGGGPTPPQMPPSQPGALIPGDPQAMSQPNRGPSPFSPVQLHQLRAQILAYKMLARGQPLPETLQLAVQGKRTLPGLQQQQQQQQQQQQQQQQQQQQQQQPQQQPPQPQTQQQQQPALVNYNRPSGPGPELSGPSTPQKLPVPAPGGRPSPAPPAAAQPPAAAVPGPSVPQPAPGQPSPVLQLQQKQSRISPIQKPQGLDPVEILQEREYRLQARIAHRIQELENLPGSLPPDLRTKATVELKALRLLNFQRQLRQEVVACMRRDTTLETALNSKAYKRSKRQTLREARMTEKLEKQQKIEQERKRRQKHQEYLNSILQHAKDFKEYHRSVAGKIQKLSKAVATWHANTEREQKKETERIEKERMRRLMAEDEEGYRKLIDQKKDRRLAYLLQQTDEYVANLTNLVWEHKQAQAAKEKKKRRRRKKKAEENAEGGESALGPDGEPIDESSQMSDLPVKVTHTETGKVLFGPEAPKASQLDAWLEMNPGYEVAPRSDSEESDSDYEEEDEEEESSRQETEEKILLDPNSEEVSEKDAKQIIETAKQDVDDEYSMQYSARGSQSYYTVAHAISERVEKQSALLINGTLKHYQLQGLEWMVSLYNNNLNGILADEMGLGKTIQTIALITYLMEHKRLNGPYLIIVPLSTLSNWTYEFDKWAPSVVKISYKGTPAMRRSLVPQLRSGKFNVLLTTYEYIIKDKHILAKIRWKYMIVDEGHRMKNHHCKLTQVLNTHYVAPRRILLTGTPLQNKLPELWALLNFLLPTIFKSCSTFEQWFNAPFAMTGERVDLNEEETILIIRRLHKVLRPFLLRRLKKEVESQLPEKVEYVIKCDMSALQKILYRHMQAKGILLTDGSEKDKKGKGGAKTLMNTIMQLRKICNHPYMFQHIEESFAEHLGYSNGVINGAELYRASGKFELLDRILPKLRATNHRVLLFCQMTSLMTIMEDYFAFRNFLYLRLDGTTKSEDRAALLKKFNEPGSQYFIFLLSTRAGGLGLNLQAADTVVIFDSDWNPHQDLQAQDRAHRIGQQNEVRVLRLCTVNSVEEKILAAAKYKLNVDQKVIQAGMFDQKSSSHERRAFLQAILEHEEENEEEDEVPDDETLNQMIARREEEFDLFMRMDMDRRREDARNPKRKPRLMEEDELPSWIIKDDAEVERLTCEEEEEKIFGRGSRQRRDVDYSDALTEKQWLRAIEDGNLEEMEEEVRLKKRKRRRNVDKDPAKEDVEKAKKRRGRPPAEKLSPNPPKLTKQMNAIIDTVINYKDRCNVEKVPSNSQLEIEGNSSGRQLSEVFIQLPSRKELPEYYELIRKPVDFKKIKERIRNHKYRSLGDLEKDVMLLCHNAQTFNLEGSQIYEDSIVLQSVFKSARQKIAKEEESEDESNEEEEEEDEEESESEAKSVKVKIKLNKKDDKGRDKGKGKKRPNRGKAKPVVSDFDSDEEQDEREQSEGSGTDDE

SMILES: Cc1ncsc1-c1ccc([C@H](C)NC(=O)[C@@H]2C[C@@H](O)CN2C(=O)[C@@H](c2cc(N3CCC(CN4CCC(O[C@H]5C[C@H](Oc6cc(/C=C/c7cc(-c8ccccc8O)nnc7N)ccn6)C5)CC4)CC3)no2)C(C)C)cc1 [compound 626, (2S,4R)-1-((R)-2-(3-(4-((4-((1r,3r)-3-((4-((E)-2-(3-amino-6-(2-hydroxyphenyl)pyridazin-4-yl)vinyl)pyridin-2-yl)oxy)cyclobutoxy)piperidin-1-yl)methyl)piperidin-1-yl)isoxazol-5-yl)-3-methylbutanoyl)-4-hydroxy-N-((S)-1-(4-(4-methylthiazol-5-yl)phenyl)ethyl)pyrrolidine-2-carboxamide]
- DC50 (BRM degradation, SW1573 cells, read-out: DC50): < 2.5 nM
- Dmax (BRM degradation, SW1573 cells, read-out: Dmax (% degraded)): > 75%

- DC50 (BRM degradation, read-out: BRM DC50): > 30 nM
SMILES: Cc1cc([C@H](C(=O)N2C[C@H](O)C[C@H]2C(=O)N[C@@H](C)c2ccc(-c3scnc3C)cc2)[C@@H](C)COCCCOc2cc(N3C4CCC3CN(c3cc(-c5ccccc5O)nnc3N)C4)ccn2)on1 [compound 495, (2S,4R)-1-((2R,3R)-4-(3-((4-(3-(3-amino-6-(2-hydroxyphenyl)pyridazin-4-yl)-3,8-diazabicyclo[3.2.1]octan-8-yl)pyridin-2-yl)oxy)propoxy)-3-methyl-2-(3-methylisoxazol-5-yl)butanoyl)-4-hydroxy-N-((S)-1-(4-(4-methylthiazol-5-yl)phenyl)ethyl)pyrrolidine-2-carboxamide]

SMILES: Cc1ncsc1-c1ccc([C@H](C)NC(=O)[C@@H]2C[C@@H](O)CN2C(=O)C(c2cc(O[C@H]3C[C@H](N4CCC(O[C@H]5C[C@H](Oc6cc(N7C8CCC7CN(c7cc(-c9ccccc9O)nnc7N)C8)ccn6)C5)CC4)C3)no2)C(C)C)cc1 (stereo partly drawn) [compound 411, (2S,4R)-1-(2-(3-((1R,3S)-3-(4-((1r,3R)-3-((4-(3-(3-amino-6-(2-hydroxyphenyl)pyridazin-4-yl)-3,8-diazabicyclo[3.2.1]octan-8-yl)pyridin-2-yl)oxy)cyclobutoxy)piperidin-1-yl)cyclobutoxy)isoxazol-5-yl)-3-methylbutanoyl)-4-hydroxy-N-((S)-1-(4-(4-methylthiazol-5-yl)phenyl)ethyl)pyrrolidine-2-carboxamide]
- Dmax (SW1573, % degraded, when tested at the top concentration of between 0.3 and 10 μM, read-out: BRM Dmax (%)): > 75%
- DC50 [1]: < 2.5 nM

SMILES: CC(C)[C@H](C(=O)N1C[C@H](O)C[C@H]1C(=O)N[C@@H](C)c1ccc(C2CC2(F)F)cc1)c1cc(OCCN2CCC(O[C@H]3C[C@H](Oc4cc(N5C6CCC5CN(c5cc(-c7ccccc7O)nnc5N)C6)ccn4)C3)CC2)no1 (stereo partly drawn) [compound 438, (2S,4R)-1-((2S)-2-(3-(2-(4-((1r,3S)-3-((4-(3-(3-amino-6-(2-hydroxyphenyl)pyridazin-4-yl)-3,8-diazabicyclo[3.2.1]octan-8-yl)pyridin-2-yl)oxy)cyclobutoxy)piperidin-1-yl)ethoxy)isoxazol-5-yl)-3-methylbutanoyl)-N-((1S)-1-(4-(2,2-difluorocyclopropyl)phenyl)ethyl)-4-hydroxypyrrolidine-2-carboxamide]
- DC50 [1]: > 30 nM

SMILES: Cc1ncsc1-c1ccc([C@H](C)NC(=O)[C@@H]2C[C@@H](O)CN2C(=O)[C@@H](c2cc(OCC#CC34CC(CN[C@H]5C[C@H](Oc6cc(N7C8CC[C@@H]7CN(c7cc(-c9ccccc9O)nnc7N)C8)ccn6)C5)(C3)C4)no2)C(C)C)cc1 [compound 382, (2S,4R)-1-((2R)-2-(3-((3-(3-((((1r,3R)-3-((4-(3-(3-amino-6-(2-hydroxyphenyl)pyridazin-4-yl)-3,8-diazabicyclo[3.2.1]octan-8-yl)pyridin-2-yl)oxy)cyclobutyl)amino)methyl)bicyclo[1.1.1]pentan-1-yl)prop-2-yn-1-yl)oxy)isoxazol-5-yl)-3-methylbutanoyl)-4-hydroxy-N-((S)-1-(4-(4-methylthiazol-5-yl)phenyl)ethyl)pyrrolidine-2-carboxamide]
- BRM Dmax (%) (% degraded, when tested at the top concentration of between 0.3 and 10 μM): A (A > 75)
- DC50 (target protein degradation, read-out: BRM DC50): < 2.5 nM

— patent publication US12539292B2, “BRM targeting compounds and associated methods of use” (Arvinas Operations, Inc., priority 2018, dated 2026)
